{
  "source": "ChEMBL document CHEMBL3132769",
  "about": "“Fragment growing to retain or alter the selectivity of anchored kinase hinge-binding fragments” (Medchemcomm, 2014)",
  "key": {"[1]": {"target": "T1, Serine/threonine-protein kinase D2 (Homo sapiens) (UniProt Q9BZL6)", "T1 sequence (whole entry)": "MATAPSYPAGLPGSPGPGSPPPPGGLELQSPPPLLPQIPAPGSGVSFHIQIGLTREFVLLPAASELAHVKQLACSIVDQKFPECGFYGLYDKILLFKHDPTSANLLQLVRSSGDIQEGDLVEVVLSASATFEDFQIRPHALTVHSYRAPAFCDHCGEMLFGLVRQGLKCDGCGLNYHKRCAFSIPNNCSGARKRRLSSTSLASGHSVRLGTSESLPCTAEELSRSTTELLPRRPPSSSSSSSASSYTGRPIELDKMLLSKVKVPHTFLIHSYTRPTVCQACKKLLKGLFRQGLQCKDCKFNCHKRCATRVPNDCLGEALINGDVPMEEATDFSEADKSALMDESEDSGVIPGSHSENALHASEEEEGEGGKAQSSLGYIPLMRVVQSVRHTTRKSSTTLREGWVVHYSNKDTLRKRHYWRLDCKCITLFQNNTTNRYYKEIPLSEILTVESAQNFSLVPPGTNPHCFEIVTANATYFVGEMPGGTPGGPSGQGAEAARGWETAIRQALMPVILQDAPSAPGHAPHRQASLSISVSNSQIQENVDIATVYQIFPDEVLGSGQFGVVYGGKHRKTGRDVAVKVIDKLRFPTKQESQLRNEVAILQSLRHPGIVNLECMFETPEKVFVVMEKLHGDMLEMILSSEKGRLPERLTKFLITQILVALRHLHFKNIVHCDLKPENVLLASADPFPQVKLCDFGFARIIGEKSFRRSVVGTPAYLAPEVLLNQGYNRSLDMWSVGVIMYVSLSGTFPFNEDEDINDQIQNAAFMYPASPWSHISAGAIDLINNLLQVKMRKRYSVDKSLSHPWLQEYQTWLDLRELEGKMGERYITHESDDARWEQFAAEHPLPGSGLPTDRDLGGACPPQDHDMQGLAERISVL", "test": "Inhibition of human full length PKD2 expressed in baculovirus assessed as substrate phosphorylation using fluorescence-labelled peptides as substrate at 8 uM after 90 mins by microfluidic peptide phosphorylation assay"}, "[2]": {"target": "T2, Protein kinase C zeta type (Homo sapiens) (UniProt Q05513)", "T2 sequence (whole entry)": "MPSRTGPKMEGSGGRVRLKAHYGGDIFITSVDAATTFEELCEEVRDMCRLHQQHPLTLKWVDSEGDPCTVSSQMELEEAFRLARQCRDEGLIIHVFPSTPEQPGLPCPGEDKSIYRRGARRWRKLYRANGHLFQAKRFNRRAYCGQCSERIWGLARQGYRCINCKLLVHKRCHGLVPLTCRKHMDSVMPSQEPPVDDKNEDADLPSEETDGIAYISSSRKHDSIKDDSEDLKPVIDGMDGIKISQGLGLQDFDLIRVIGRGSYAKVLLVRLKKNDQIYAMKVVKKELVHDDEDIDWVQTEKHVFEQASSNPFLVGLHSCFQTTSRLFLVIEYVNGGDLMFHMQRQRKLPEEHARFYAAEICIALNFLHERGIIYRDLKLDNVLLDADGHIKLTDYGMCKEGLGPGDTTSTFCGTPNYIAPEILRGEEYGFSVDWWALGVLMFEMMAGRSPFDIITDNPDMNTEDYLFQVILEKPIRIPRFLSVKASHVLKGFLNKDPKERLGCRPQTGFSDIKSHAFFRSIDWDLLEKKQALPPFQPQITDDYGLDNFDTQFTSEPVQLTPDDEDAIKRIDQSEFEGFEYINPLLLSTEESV", "test": "Inhibition of human full length PKC zeta expressed in baculovirus assessed as substrate phosphorylation using fluorescence-labelled peptides as substrate at 8 uM after 90 mins by microfluidic peptide phosphorylation assay"}, "[3]": {"target": "Ribosomal protein S6 kinase alpha-1 (Homo sapiens) (UniProt Q15418)", "sequence (Q15418 whole entry)": "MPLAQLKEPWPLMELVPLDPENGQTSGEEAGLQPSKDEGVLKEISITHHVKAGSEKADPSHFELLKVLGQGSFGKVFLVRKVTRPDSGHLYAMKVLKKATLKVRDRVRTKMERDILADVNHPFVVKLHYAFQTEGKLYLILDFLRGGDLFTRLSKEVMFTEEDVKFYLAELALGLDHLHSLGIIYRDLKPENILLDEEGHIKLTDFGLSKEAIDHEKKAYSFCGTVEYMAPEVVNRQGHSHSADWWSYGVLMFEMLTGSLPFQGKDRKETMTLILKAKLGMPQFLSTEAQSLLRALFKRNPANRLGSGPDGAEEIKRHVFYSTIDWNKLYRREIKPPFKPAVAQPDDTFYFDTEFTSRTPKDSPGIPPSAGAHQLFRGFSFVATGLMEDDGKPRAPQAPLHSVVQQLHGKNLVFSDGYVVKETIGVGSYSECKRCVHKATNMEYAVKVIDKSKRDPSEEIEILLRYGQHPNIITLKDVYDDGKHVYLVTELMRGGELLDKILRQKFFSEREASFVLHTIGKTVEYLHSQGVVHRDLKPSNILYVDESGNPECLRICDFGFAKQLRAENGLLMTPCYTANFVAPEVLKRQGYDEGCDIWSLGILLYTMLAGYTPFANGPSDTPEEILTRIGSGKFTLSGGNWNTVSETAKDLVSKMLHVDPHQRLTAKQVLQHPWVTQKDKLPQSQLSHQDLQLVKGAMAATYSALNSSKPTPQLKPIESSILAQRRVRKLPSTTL", "test": "Inhibition of human full length RSK1 expressed in baculovirus assessed as substrate phosphorylation using fluorescence-labelled peptides as substrate at 0.06 uM after 90 mins by microfluidic peptide phosphorylation assay"}, "[4]": {"target": "T2, Protein kinase C zeta type (Homo sapiens)", "test": "Inhibition of human full length PKC zeta expressed in baculovirus assessed as substrate phosphorylation using fluorescence-labelled peptides as substrate at 2 uM after 90 mins by microfluidic peptide phosphorylation assay"}, "[5]": {"target": "Ribosomal protein S6 kinase alpha-3 (Homo sapiens) (UniProt P51812)", "sequence (P51812 whole entry)": "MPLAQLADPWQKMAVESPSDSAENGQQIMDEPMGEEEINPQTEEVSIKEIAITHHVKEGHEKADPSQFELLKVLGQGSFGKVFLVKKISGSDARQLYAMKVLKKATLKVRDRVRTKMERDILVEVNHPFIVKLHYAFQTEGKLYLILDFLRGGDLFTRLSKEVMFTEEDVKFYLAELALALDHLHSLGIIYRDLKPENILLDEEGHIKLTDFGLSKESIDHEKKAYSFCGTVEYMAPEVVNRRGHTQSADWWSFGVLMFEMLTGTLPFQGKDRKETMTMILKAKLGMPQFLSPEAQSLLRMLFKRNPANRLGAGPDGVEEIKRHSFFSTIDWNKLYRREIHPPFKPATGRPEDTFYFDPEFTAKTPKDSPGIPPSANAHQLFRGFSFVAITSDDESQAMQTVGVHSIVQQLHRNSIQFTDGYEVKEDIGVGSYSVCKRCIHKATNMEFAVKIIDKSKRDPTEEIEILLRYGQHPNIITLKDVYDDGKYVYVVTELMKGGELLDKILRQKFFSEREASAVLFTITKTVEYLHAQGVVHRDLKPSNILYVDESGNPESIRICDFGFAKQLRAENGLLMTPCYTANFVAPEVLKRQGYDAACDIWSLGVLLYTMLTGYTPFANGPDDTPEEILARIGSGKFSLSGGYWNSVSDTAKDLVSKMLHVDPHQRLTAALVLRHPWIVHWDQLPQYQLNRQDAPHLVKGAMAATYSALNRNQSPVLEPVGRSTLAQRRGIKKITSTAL", "test": "Inhibition of human full length RSK2 expressed in baculovirus assessed as substrate phosphorylation using fluorescence-labelled peptides as substrate at […] after 90 mins by microfluidic peptide phosphorylation assay"}, "Homo sapiens": {"species_on_record": "Homo sapiens", "test": "Inhibition of human full length PKA expressed in baculovirus assessed as substrate phosphorylation using fluorescence-labelled peptides as substrate at 9 uM after 90 mins by microfluidic peptide phosphorylation assay"}, "[6]": {"target": "Casein kinase I isoform alpha (Homo sapiens) (UniProt P48729)", "sequence (P48729 2-337 limits assumed)": "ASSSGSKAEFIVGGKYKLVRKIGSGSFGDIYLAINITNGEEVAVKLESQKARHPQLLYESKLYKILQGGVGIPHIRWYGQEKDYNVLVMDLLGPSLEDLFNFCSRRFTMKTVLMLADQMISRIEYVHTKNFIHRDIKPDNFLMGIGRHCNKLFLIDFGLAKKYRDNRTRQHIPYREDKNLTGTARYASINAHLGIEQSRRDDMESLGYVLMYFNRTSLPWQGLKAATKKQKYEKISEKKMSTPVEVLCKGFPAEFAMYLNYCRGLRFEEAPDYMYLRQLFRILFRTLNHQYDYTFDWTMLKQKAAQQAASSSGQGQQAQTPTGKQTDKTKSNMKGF", "test": "Inhibition of human full length CSNK1A1 expressed in baculovirus assessed as substrate phosphorylation using fluorescence-labelled peptides as substrate at 0.1 uM after 90 mins by microfluidic peptide phosphorylation assay"}, "[7]": {"target": "Fibroblast growth factor receptor 4 (Homo sapiens) (UniProt P22455)", "sequence (P22455 22-802 limits assumed)": "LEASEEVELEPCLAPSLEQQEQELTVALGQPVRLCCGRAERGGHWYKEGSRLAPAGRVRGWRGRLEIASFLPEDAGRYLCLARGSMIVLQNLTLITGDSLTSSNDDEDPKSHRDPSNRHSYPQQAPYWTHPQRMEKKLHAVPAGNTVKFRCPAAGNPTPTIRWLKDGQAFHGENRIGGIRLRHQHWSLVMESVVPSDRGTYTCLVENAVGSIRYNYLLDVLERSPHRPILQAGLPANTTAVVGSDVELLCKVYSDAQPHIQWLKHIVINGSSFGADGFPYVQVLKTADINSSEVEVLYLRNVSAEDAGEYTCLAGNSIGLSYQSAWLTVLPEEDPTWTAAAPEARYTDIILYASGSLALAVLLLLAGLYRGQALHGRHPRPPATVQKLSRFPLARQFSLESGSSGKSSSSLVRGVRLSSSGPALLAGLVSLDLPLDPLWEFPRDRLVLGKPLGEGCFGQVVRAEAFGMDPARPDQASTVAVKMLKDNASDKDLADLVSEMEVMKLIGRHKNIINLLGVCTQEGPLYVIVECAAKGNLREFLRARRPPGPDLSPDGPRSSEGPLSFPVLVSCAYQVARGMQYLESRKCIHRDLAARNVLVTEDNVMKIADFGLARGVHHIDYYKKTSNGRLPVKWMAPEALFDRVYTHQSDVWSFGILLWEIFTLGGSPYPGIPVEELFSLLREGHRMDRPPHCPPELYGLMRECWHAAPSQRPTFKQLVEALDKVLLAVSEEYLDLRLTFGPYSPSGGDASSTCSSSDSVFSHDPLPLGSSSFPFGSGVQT", "details": "0.1 uM", "description": "Inhibition of human FGFR4 catalytic domain expressed in baculovirus assessed as substrate phosphorylation using fluorescence-labelled peptides as substrate at 0.1 uM after 90 mins by microfluidic peptide phosphorylation assay"}, "[8]": {"target": "T3, Serine/threonine-protein kinase Nek2 (Homo sapiens) (UniProt P51955)", "T3 sequence (whole entry)": "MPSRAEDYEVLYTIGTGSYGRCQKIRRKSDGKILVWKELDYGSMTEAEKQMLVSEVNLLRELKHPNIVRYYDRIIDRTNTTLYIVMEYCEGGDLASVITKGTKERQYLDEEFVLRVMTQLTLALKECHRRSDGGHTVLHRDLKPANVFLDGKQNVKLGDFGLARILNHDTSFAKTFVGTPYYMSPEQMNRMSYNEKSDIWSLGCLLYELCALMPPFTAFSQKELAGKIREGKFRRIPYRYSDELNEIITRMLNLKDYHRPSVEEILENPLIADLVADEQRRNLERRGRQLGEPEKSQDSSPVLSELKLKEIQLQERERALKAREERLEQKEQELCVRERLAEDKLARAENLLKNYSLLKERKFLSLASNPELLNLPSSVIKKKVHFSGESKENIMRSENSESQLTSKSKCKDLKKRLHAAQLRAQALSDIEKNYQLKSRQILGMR", "test": "Inhibition of human full length NEK2 expressed in baculovirus assessed as substrate phosphorylation using fluorescence-labelled peptides as substrate at 1000 uM after 90 mins by microfluidic peptide phosphorylation assay"}},
  "data": [
    {"smiles": "NCC1CCN(c2ncnc3[nH]ccc23)CC1", "values": [
      {"measurement": "inhibition", "setting": "[1]", "value": 28.5, "unit": "%"},
      {"measurement": "inhibition", "setting": "[2]", "value": 67.5, "unit": "%"}
    ]},
    {"smiles": "NC1(Cc2ccc(Cl)cc2)CCN(c2ncnc3[nH]ccc23)CC1", "values": [
      {"measurement": "inhibition", "setting": "[3]", "value": 19.5, "unit": "%"}
    ]},
    {"smiles": "NC1CCN(c2ncnc3[nH]ccc23)CC1", "values": [
      {"measurement": "inhibition", "setting": "[4]", "value": 20.5, "unit": "%"}
    ]},
    {"smiles": "COC(=O)c1cnc(Nc2cnc(C#N)cn2)cc1NCC1CCNCC1", "values": [
      {"measurement": "inhibition", "setting": "[5]", "value": 42, "unit": "%"}
    ]},
    {"smiles": "NCC1CN(c2ncnc3[nH]c4cnccc4c23)CCO1", "note": "(centres undefined)", "values": [
      {"measurement": "inhibition", "setting": "Homo sapiens", "value": 33.5, "unit": "%"}
    ]},
    {"smiles": "C[C@H](CN(C)C)Oc1nc(Nc2cc3cccc(Cl)c3cn2)cnc1C#N", "values": [
      {"measurement": "inhibition", "setting": "[6]", "value": 2.5, "unit": "%"},
      {"measurement": "inhibition", "setting": "[7]", "value": 0, "unit": "%"}
    ]},
    {"smiles": "c1cnc2[nH]ccc2c1", "values": [
      {"measurement": "inhibition", "setting": "[8]", "value": 2.5, "unit": "%"}
    ]}
  ]
}
